Where two headings read alike, the source gives them in different places.
Experiments:
CDK2/CyclinE1 = molecular target: T1, CDK2/CyclinE1 (Homo sapiens, UniProt P24941); assay: Assay for inhibition of CDK2/CyclinE1 (Caliper microfluidic kinase assay); format: biochemical; details: read-out: CDK2 IC50
T1 construct: purchased SignalChem C29-18G
Experimental: The CDK2 enzyme assay for IC50 determination was performed as follows. Microfluidic kinase detection technology (Caliper) was used to monitor the phosphorylation of peptide substrate by CDK2/CyclinE1. The total reaction volume was 15 μL containing buffer A (100 mM HEPES (pH 7.5), 0.1% BSA, 0.01% Triton X-100, 1 mM DTT, 10 mM MgCl2, 10 μM Sodium Orthovanadate, 10 μM Beta-Glycerophosphate), 100 μM ATP, 5 nM CDK2/CyclinE1 (SignalChem, C29-18G), 5 μM FL-18 (5-FAM-QSPKKG-NH2), and the test compound at appropriate dilutions in DMSO. All components were added to the 384-well plate (Corning, 4514), and incubate at Room Temperature for 3 hours. The reaction was terminated by addition of 15 μL Stop Buffer (180 mM HEPES (pH 7.5), 20 mM EDTA, Coating-3 reagent (PerkinElmer, 760050)). The plate was loaded on Caliper EZ Reader (EZ Reader II, PerkinElmer, HD-4HYSG2772), and the reaction mixtures including substrate and product were sipped into the microfluidic chip for separation and detection. The IC50 values of the test compound were determined by fitting the inhibition curves by 4 parameter sigmoidal dose-response model using the Xlfit5/GraphPad Prism 5 software.

CDK4/CyclinD1 = molecular target: T2, CDK4/CyclinD1 (Homo sapiens, UniProt P11802); assay: Assay for inhibition of CDK4/CyclinD1 (Caliper microfluidic kinase assay); format: biochemical
T2 construct: purchased Thermofisher PR8064A
T2 sequence (P11802 whole entry): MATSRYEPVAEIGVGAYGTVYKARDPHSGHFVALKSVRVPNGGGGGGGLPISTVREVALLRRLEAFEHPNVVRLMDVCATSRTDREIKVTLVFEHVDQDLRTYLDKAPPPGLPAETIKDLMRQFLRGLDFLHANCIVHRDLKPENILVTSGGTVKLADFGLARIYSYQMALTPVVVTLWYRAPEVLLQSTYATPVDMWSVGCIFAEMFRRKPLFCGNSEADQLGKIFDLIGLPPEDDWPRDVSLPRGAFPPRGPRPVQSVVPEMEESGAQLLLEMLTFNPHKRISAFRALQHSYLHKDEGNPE
T2 sequence (P24385 whole entry partner): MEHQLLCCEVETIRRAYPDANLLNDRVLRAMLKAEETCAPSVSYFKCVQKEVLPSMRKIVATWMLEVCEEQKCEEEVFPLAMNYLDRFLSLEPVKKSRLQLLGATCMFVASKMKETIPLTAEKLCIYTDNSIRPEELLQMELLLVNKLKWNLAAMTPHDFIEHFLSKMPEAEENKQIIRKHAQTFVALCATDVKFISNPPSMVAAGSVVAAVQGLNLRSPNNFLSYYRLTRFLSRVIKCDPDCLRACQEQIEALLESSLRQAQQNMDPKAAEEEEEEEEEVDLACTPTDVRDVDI
Experimental: The CDK4 enzyme assay for IC50 determination was performed as follows. Microfluidic kinase detection technology (Caliper) was used to monitor the phosphorylation of peptide substrate by CDK4/CyclinD1. The total reaction volume was 15 μL containing buffer A (100 mM HEPES (pH 7.5), 0.1% BSA, 0.01% Triton X-100, 1 mM DTT, 10 mM MgCl2, 10 μM Sodium Orthovanadate, 10 μM Beta-Glycerophosphate), 200 μM ATP, 1 nM CDK4/CyclinD1 (Thermofisher, PR8064A), 1 μM FL-34 (5-FAM-[…]), and the test compound at appropriate dilutions in DMSO. All components were added to the 384-well plate (Corning, 4514), and incubated at Room Temperature for 3 hours. The reaction was terminated by addition of 15 μL Stop Buffer (180 mM HEPES (pH 7.5), 20 mM EDTA, Coating-3 reagent (PerkinElmer, 760050)). The plate was then loaded on Caliper EZ Reader (EZ Reader II, PerkinElmer, HD-4HYSG2772), and the reaction mixtures including substrate and product were sipped into the microfluidic chip for separation and detection. The IC50 values of the test compound were determined by fitting the inhibition curves by 4 parameter sigmoidal dose-response model using the Xlfit5/GraphPad Prism 5 software.

| Structure (SMILES) | IC50 (CDK2/CyclinE1; CDK2/CyclinE1, 100 μM ATP) [nM] | IC50 (CDK4/CyclinD1; CDK4/CyclinD1, 200 μM ATP) [nM] | IC50 (CDK2/CyclinE1; CDK2/CyclinE1) [nM] | IC50 (CDK4/CyclinD1; CDK4/CyclinD1) [nM] |
| --- | --- | --- | --- | --- |
| CC(C)c1cnc2cnc(-c3ccnc(Nc4ccc(N5CCNCC5=O)cn4)n3)cn12 [Synthetic Example 143] | > 1000 | 10 to 100 | – | – |
| COc1nc(-c2nc(Nc3ccc(N4CCOCC4=O)cn3)ncc2F)cc2c1nc(C)n2C1CCCC1O (stereo not shown) [compound 71] | – | – | > 1000 | 10 to 100 |
| COc1nc(-c2nc(Nc3ccc(N4CCOCC4=O)cn3)ncc2F)cc2c1nc(C)n2C(C)CO (stereo not shown) [compound 72] | – | – | > 1000 | 10 to 100 |
| COc1nc(-c2nc(Nc3ccc(N4CCOC4=O)cn3)ncc2F)cc2c1nc(C)n2C(C)C [compound 85] | – | – | > 1000 | 10 to 100 |
| CCN1CCN(c2ccc(Nc3ncc(F)c(-c4cc5c(nc(C)n5C(C)C)c(OC)n4)n3)nc2)C1=O [compound 89] | – | – | > 1000 | 10 to 100 |
| COc1nc(-c2nc(Nc3ccc(N4CCC5(CCNC5=O)CC4)cn3)ncc2F)cc2c1nc(C)n2C(C)C [compound 90] | – | – | > 1000 | 10 to 100 |
| COc1nc(-c2nc(Nc3ccc(N4CCOCC4C)cn3)ncc2F)cc2c1nc(C)n2C(C)C (stereo not shown) [compound 97] | – | – | > 1000 | 10 to 100 |
| CCN1CCN(c2ccc(Nc3ncc(F)c(-c4cc5c(nc(C)n5C(C)C)c(OC)n4)n3)nc2)CC1=O [compound 105] | – | – | > 1000 | 10 to 100 |
| COc1nc(-c2ccnc(Nc3ccn(CC4CCNCC4)n3)n2)cc2c1ncn2C(C)C [compound 108] | > 1000 | 10 to 100 | – | – |
| COc1nc(-c2nc(Nc3ccc(N4CCNC5(CC5)C4)cn3)ncc2F)cc2c1nc(C)n2C(C)C [compound 110] | > 1000 | 10 to 100 | – | – |
| COc1nc(-c2nc(Nc3ccc(C(=O)N4CCC(N)CC4)c(C)n3)ncc2F)cc2c1nc(C)n2C(C)C [compound 120] | > 1000 | 10 to 100 | – | – |
| COc1nc(-c2ccnc(Nc3ccc4c(n3)CCN(C(=O)CO)C4)n2)cc2c1ncn2C(C)C [compound 141] | > 1000 | 10 to 100 | – | – |
| COc1nc(-c2ccnc(Nc3ccc4c(n3)CCN(C(=O)CC#N)C4)n2)cc2c1ncn2C(C)C [compound 142] | > 1000 | 10 to 100 | – | – |
| CC(C)c1cnn2ccc(-c3ccnc(Nc4ccc(C(=O)N5CCC(N(C)C)CC5)cc4)n3)cc12 [compound 148] | < 10 | < 10 | – | – |
| CC(C)c1cnn2ccc(-c3ccnc(Nc4ccc(C(=O)N5CCC(O)CC5)cc4)n3)cc12 [compound 149] | < 10 | 10 to 100 | – | – |
| CC(C)c1cnn2ccc(-c3ccnc(Nc4ccc(C(=O)N5CCC(O)C5)cc4)n3)cc12 (stereo not shown) [compound 150] | < 10 | < 10 | – | – |
| CC(C)c1cnn2ccc(-c3ccnc(Nc4ccc(C(=O)N5CCC(N(C)C)C5)cc4)n3)cc12 (stereo not shown) [compound 151] | < 10 | < 10 | – | – |
| CC(C)c1cnn2ccc(-c3ccnc(Nc4ccc(C(=O)N5CCC(N(C)C)C5)cc4F)n3)cc12 (stereo not shown) [compound 152] | 10 to 100 | 10 to 100 | – | – |
| CC(C)c1cnn2ccc(-c3ccnc(Nc4ccc(C(=O)N5CC(O)C5)cc4)n3)cc12 [compound 153] | < 10 | < 10 | – | – |
| CC(C)c1cnn2ccc(-c3ccnc(Nc4ccc(C(=O)N5CC(N(C)C)C5)cc4)n3)cc12 [compound 154] | < 10 | < 10 | – | – |
| CC(C)c1cnn2ccc(-c3ccnc(Nc4ccc(N5CCC(N(C)C)CC5=O)cc4F)n3)cc12 (stereo not shown) [compound 180] | < 10 | < 10 | – | – |
| CN(C)C1CCN(c2ccc(Nc3nccc(-c4ccn5ncc(C(C)(C)C)c5c4)n3)c(F)c2)C(=O)C1 (stereo not shown) [compound 181] | < 10 | < 10 | – | – |

| Structure (SMILES) | IC50 (CDK2/CyclinE1; CDK2/CyclinE1, 100 μM ATP) [nM] | IC50 (CDK4/CyclinD1; CDK4/CyclinD1, 200 μM ATP) [nM] | IC50 (CDK2/CyclinE1; CDK2/CyclinE1) [nM] | IC50 (CDK4/CyclinD1; CDK4/CyclinD1) [nM] |
| --- | --- | --- | --- | --- |
| Cc1nn2ccc(-c3ccnc(Nc4ccc(S(N)(=O)=O)nc4)n3)cc2c1C(C)C [compound 182] | < 10 | 10 to 100 | – | – |
| Cc1cc(N2CCNCC2=O)ccc1Nc1nccc(-c2ccn3ncc(C(C)C)c3c2)n1 [compound 186] | < 10 | 10 to 100 | – | – |
| CC(C)c1cnn2ccc(-c3ccnc(Nc4cccc(N5CCNCC5=O)c4)n3)cc12 [compound 187] | 10 to 100 | 10 to 100 | – | – |
| CC(C)c1cnn2ccc(-c3ccnc(Nc4ccc(N5CCNCC5=O)cc4O)n3)cc12 [compound 188] | 10 to 100 | 10 to 100 | – | – |
| CNC1CN(C(=O)c2ccc(Nc3nccc(-c4ccn5ncc(C(C)C)c5c4)n3)cc2)C1 [compound 190] | 10 to 100 | < 10 | – | – |
| CC(C)c1cnn2ccc(-c3ccnc(Nc4ccc(N5CCC(C)(N)CC5=O)cc4Cl)n3)cc12 (stereo not shown) [compound 212] | < 10 | < 10 | – | – |
| COc1cc(N2CCCC(N)C2=O)ccc1Nc1nccc(-c2ccn3ncc(C(C)C)c3c2)n1 (stereo not shown) [compound 222] | 10 to 100 | 10 to 100 | – | – |
| CC(C)c1cnn2ccc(-c3ccnc(Nc4ccc(N5CCCC(N)C5=O)cc4F)n3)cc12 (stereo not shown) [compound 223] | 10 to 100 | < 10 | – | – |
| CC(C)c1cnn2ccc(-c3ccnc(Nc4ccc(N5CCNCC5=O)c(F)c4)n3)cc12 [compound 228] | < 10 | < 10 | – | – |
| CC(C)c1cnn2ccc(-c3ccnc(Nc4ccc(N5CCNCC5=O)c(F)c4F)n3)cc12 [compound 229] | < 10 | < 10 | – | – |
| CCNC1CCN(c2ccc(Nc3nccc(-c4ccn5ncc(C(C)C)c5c4)n3)c(F)c2)C(=O)C1 (stereo not shown) [compound 230] | < 10 | < 10 | – | – |
| CNC1CCCN(c2ccc(Nc3nccc(-c4ccn5ncc(C(C)C)c5c4)n3)c(F)c2)C1=O (stereo not shown) [compound 231] | 10 to 100 | < 10 | – | – |
| CC(C)(C)c1cnn2ccc(-c3ccnc(Nc4ccc(N5CCCC(N)C5=O)cc4F)n3)cc12 (stereo not shown) [compound 232] | < 10 | < 10 | – | – |
| CC(C)c1cnn2ccc(-c3ccnc(Nc4ccc(N5CCC(NCCF)CC5=O)cc4)n3)cc12 (stereo not shown) [compound 233] | < 10 | < 10 | – | – |
| CCN1CCN(Cc2ccc(Nc3ncc(F)c(N4CCc5ncn(C(C)C)c5C4)n3)nc2)CC1 [compound 251] | > 1000 | 10 to 100 | – | – |
| CC(C)n1cnc2c1CN(c1nc(Nc3ccc(S(N)(=O)=O)nc3)ncc1F)CC2 [compound 254] | < 10 | 10 to 100 | – | – |
| CC(C)n1cnc2c1CN(c1nc(Nc3ccc4c(c3)CS(=O)(=O)C4)ncc1F)CC2 [compound 255] | < 10 | < 10 | – | – |
| CC(C)n1cnc2c1CN(c1nc(Nc3ccc(N4CCNCC4=O)cc3F)ncc1F)CC2 [compound 256] | < 10 | < 10 | – | – |
| CC1(C)COc2c(F)cc(-c3ccnc(Nc4ccc(N5CCCC(N)C5=O)nc4)n3)cc21 (stereo not shown) [compound 264] | 10 to 100 | < 10 | – | – |
| CCN1CCN(c2ccc(Nc3nccc(-c4cc5c(ncn5C(C)C)c(F)n4)n3)nc2)C(=O)C1 [compound 274] | 100 to 1000 | < 10 | – | – |
| CC(C)n1cnc2c(F)nc(-c3ccnc(Nc4ccc(N5CCC(C)(N)CC5=O)cc4Cl)n3)cc21 (stereo not shown) [compound 291] | < 10 | < 10 | – | – |
| COc1cc(N2CCC(N(C)C)CC2=O)ccc1Nc1nccc(-c2cc3c(ncn3C(C)C)c(F)n2)n1 (stereo not shown) [compound 296] | < 10 | < 10 | – | – |

Source: US20220296595A1, “CDK INHIBITORS” (QILU REGOR THERAPEUTICS INC., priority 2019, published 2022)
